These compounds were tested against T1, hCB1 (Homo sapiens, UniProt P21554) (assay: Agonist-induced GTP binding (GTPγ35S) assay at CB1, Example 8). Conditions: IC50 at CB1, determined as described in Example 8; read-out: IC50.
T1 construct: made in house; host or cells: Sf9 insect cells (baculovirus), P2 membranes
Format: biochemical
In short: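 Antagonism read as inhibition of 1 nM CP55,940-stimulated GTPγ35S ([…]) binding, compounds at 10^−10 to 10^−5 M. Baculovirus-infected Sf9 membranes bearing hCB1 plus G-protein subunits, 60 min room-temperature incubation with 5 μM GDP. Filtration and scintillation counting; data as percent over basal.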

T1 sequence (P21554 whole entry): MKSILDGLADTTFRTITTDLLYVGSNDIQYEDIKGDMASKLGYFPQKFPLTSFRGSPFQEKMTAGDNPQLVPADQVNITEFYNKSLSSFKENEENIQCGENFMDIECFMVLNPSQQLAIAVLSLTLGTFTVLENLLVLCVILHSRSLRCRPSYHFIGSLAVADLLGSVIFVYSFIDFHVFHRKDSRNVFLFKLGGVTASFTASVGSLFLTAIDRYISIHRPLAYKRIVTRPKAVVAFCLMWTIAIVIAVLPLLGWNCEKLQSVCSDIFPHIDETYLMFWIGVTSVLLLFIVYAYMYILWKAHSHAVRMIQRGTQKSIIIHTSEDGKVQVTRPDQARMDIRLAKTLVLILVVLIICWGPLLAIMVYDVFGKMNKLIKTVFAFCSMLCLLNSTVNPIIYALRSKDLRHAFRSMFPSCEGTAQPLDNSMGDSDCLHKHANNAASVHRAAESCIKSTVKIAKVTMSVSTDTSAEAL

IC50, < 2000 nM:
COC(=O)c1ccc(NC(=O)Nc2cccc(O)c2)cc1 [Compound 745, methyl 4-({[(3-hydroxyphenyl)amino]carbonyl}amino)benzoate]
CC(=O)c1cccc(NC(=O)Nc2ccc(C(C)C)cc2)c1 [Compound 347, 1-(3-acetylphenyl)-3-(4-isopropylphenyl)urea]
N#CCOc1ccc(NC(=O)Nc2cccc(C#N)c2)cc1 [Compound 507, 1-[4-(cyanomethoxy)phenyl]-3-(3-cyanophenyl)urea]
CCc1ccc(NC(=O)Nc2ccc3c(c2)CCC3)cc1 [Compound 442, 1-(2,3-dihydro-1H-inden-5-yl)-3-(4-ethylphenyl)urea]
Cc1cccc(NC(=O)Nc2ccc(OC(F)F)cc2)n1 [Compound 633, 1-[4-(difluoromethoxy)phenyl]-3-(6-methylpyridin-2-yl)urea]
CC(=O)c1ccc(NC(=O)Nc2cccc(Br)c2)cc1 [Compound 353, 1-(4-acetylphenyl)-3-(3-bromophenyl)urea]
CCOC(=O)c1ccc(NC(=O)Nc2cccc(Cl)c2)cc1 [Compound 499, ethyl 4-({[(3-chlorophenyl)amino]carbonyl}amino)benzoate]
CCC(=O)c1ccc(NC(=O)Nc2cccc(OC)c2)cc1 [Compound 591, 1-(3-methoxyphenyl)-3-(4-propionylphenyl)urea]
Cc1ccc(NC(=O)Nc2ccc(C(=O)OC(C)C)cc2)cc1F [Compound 740, isopropyl 4-({[(3-fluoro-4-methylphenyl)amino]carbonyl}amino)benzoate]
Cc1cccc(NC(=O)Nc2cccc(OC(F)F)c2)c1 [Compound 369, 1-[3-(difluoromethoxy)phenyl]-3-(3-methylphenyl)urea]
COCc1ccc(NC(=O)Nc2ccc(C(C)C)cc2)cc1 [Compound 572, 1-(4-isopropylphenyl)-3-[4-(methoxymethyl)phenyl]urea]
CCCc1ccc(NC(=O)Nc2cccc(C(C)=O)c2)cc1 [Compound 351, 1-(3-acetylphenyl)-3-(4-propylphenyl)urea]
N#CCOc1ccc(NC(=O)Nc2ccc(C#N)cc2)cc1 [Compound 506, 1-[4-(cyanomethoxy)phenyl]-3-(4-cyanophenyl)urea]
CCC(=O)c1ccc(NC(=O)Nc2ccc(CC)cc2)cc1 [Compound 492, 1-(4-ethylphenyl)-3-(4-propionylphenyl)urea]
Cc1ccc(NC(=O)Nc2cccc(OC(F)F)c2)cc1F [Compound 696, 1-[3-(difluoromethoxy)phenyl]-3-(3-fluoro-4-methylphenyl)urea]
CCOc1cccc(NC(=O)Nc2ccc(C)c(F)c2)c1 [Compound 681, 1-(3-ethoxyphenyl)-3-(3-fluoro-4-methylphenyl)urea]
CCc1ccc(NC(=O)Nc2ccc(C(=O)OC(C)C)cc2)cc1 [Compound 502, isopropyl 4-({[(4-ethylphenyl)amino]carbonyl}amino)benzoate]
CCOc1ccc(NC(=O)Nc2ccc(Cl)c(C)c2)cc1 [Compound 623, 1-(4-chloro-3-methylphenyl)-3-(4-ethoxyphenyl)urea]
CCOC(=O)c1ccc(NC(=O)Nc2cccc(CCO)c2)cc1 [Compound 751, ethyl 4-[({[3-(2-hydroxyethyl)phenyl]amino}carbonyl)amino] benzoate]
Cc1ccc(NC(=O)Nc2ccc(F)c(F)c2)cc1Cl [Compound 777, 1-(3-chloro-4-methylphenyl)-3-(3,4-difluorophenyl)urea]
CCOC(=O)c1cccc(NC(=O)Nc2ccc(F)c(C)c2)c1 [Compound 767, ethyl 3-({[(4-fluoro-3-methylphenyl)amino]carbonyl}amino)benzoate]
CCOC(=O)c1ccc(NC(=O)Nc2ccc(Cl)cc2)cc1 [Compound 500, ethyl 4-({[(4-chlorophenyl)amino]carbonyl}amino)benzoate]
O=C(Nc1ccc(OC(F)F)cc1)Nc1ccc([N+](=O)[O-])cc1 [Compound 569, 1-[4-(difluoromethoxy)phenyl]-3-(4-nitrophenyl)urea]
CCOC(=O)c1cccc(NC(=O)Nc2ccc(C(C)C)cc2)c1 [Compound 649, ethyl 3-({[(4-isopropylphenyl)amino]carbonyl}amino)benzoate]
CCOC(=O)c1ccc(NC(=O)Nc2ccc(CO)cc2)cc1 [Compound 749, ethyl 4-[({[4-(hydroxymethyl)phenyl]amino}carbonyl)amino] benzoate]
Cc1ccc(NC(=O)Nc2cccc(C#N)c2)cc1C [Compound 447, 1-(3-cyanophenyl)-3-(3,4-dimethylphenyl)urea]
CC(C)Oc1cccc(NC(=O)Nc2ccc(C(C)C)cc2)c1 [Compound 574, 1-(3-isopropoxyphenyl)-3-(4-isopropylphenyl)urea]
CCCc1ccc(NC(=O)Nc2ccc(C)cc2)cc1 [Compound 293, N-(4-methylphenyl)-N′-(4-propylphenyl)urea]
N#CCOc1ccc(NC(=O)Nc2cc(F)cc(F)c2)cc1 [Compound 743, 1-[4-(cyanomethoxy)phenyl]-3-(3,5-difluorophenyl)urea]
CCOc1ccc(NC(=O)Nc2cccc(OC(F)F)c2)cc1 [Compound 555, 1-[3-(difluoromethoxy)phenyl]-3-(4-ethoxyphenyl)urea]
CCOC(=O)c1cccc(NC(=O)Nc2ccc(Cl)c(C)c2)c1 [Compound 771, ethyl 3-({[(4-chloro-3-methylphenyl)amino]carbonyl}amino)benzoate]

Same assay, conditions: Table I; IC50 at CB1, GTP binding with 1 nM CP55,940; read-out: IC50

IC50, < 2000 nM:
CCc1ccc(NC(=O)Nc2cccc(C(C)=O)c2)cc1 [Compound 56, N-(3-acetylphenyl)-N′-(4-ethylphenyl)urea]
O=C(Nc1ccccc1)Nc1ccc(OC(F)F)cc1 [Compound 48, N-[4-(difluoromethoxy)phenyl]-N′-phenylurea]
CCc1ccc(NC(=O)Nc2cccc(OC(C)C)c2)cc1 [Compound 23, N-(4-ethylphenyl)-N′-(3-isopropoxyphenyl)urea]
CCc1ccc(NC(=O)Nc2cccc(C#N)c2)cc1 [Compound 55, N-(3-cyanophenyl)-N′-(4-ethylphenyl)urea]
O=C(Nc1ccc(OC(F)F)cc1)Nc1cccc(OCCO)c1 [Compound 14, N-[4-(difluoromethoxy)phenyl]-N′-[3-(2-hydroxyethoxy)phenyl]urea]

Same assay, conditions: Table II; IC50 at CB1, GTP binding with 1 nM CP55,940; read-out: IC50

IC50, < 2000 nM:
O=C(Nc1ccc(OC(F)F)cc1)Nc1cccc(-c2ccccc2)c1 [Compound 98, N-biphenyl-3-yl-N′-[4-(difluoromethoxy)phenyl]urea]
CCCc1ccc(NC(=O)Nc2cccc(C#N)c2)cc1 [Compound 198, N-(3-cyanophenyl)-N′-(4-propylphenyl)urea]
CCc1cccc(NC(=O)Nc2ccc(C)cc2)c1 [Compound 174, N-(3-ethylphenyl)-N′-(4-methylphenyl)urea]
CC(C)Oc1ccc(NC(=O)Nc2cccc(Cl)c2)cc1 [Compound 251, N-(3-chlorophenyl)-N′-(4-isopropoxyphenyl)urea]
CC(C)Oc1cccc(NC(=O)Nc2cccc(F)c2)c1 [Compound 211, N-(3-fluorophenyl)-N′-(3-isopropoxyphenyl)urea]
CC(C)Oc1ccc(NC(=O)Nc2ccc(F)cc2)cc1 [Compound 216, N-(4-fluorophenyl)-N′-(4-isopropoxyphenyl)urea]
Cc1cccc(NC(=O)Nc2ccc(N3CCCCC3)cc2)c1 [Compound 168, N-(3-methylphenyl)-N′-(4-piperidin-1-ylphenyl)urea]
CCc1ccc(NC(=O)Nc2ccc(OC(C)C)cc2)cc1 [Compound 250, N-(4-ethylphenyl)-N′-(4-isopropoxyphenyl)urea]
CCOc1ccc(NC(=O)Nc2ccc(OC(F)F)cc2)cc1 [Compound 131, N-[4-(difluoromethoxy)phenyl]-N′-(4-ethoxyphenyl)urea]
CCCOc1ccc(NC(=O)Nc2ccc(C(C)=O)cc2)cc1 [Compound 275, N-(4-acetylphenyl)-N′-(4-propoxyphenyl)urea]
Cc1ccnc(NC(=O)Nc2ccc(OC(F)F)cc2)c1 [Compound 151, N-[4-(difluoromethoxy)phenyl]-N′-(4-methylpyridin-2-yl)urea]
CCOc1cccc(NC(=O)Nc2ccc(Cl)cc2)c1 [Compound 233, N-(4-chlorophenyl)-N′-(3-ethoxyphenyl)urea]
CCc1ccc(NC(=O)Nc2cccc(OC(F)F)c2)cc1 [Compound 254, N-[3-(difluoromethoxy)phenyl]-N′-(4-ethylphenyl)urea]
Cc1cc(-c2cccc(NC(=O)Nc3ccc(OC(F)F)cc3)c2)cc(C)n1 [Compound 120, N-[4-(difluoromethoxy)phenyl]-N′-[3-(2,6-dimethylpyridin-4-yl)phenyl]urea]
CC(=O)c1ccc(NC(=O)Nc2ccc(Cl)cc2)cc1 [Compound 192, N-(4-acetylphenyl)-N′-(4-chlorophenyl)urea]
O=C(Nc1ccc(OC(F)F)cc1)Nc1ccc(-n2cnc(Cl)c2Cl)cc1 [Compound 82, N-[4-(4,5-dichloro-1H-imidazol-1-yl)phenyl]-N′-[4-(difluoromethoxy)phenyl]urea]
O=C(Nc1ccc(OC(F)F)cc1)Nc1ccc(S(=O)(=O)N2CCCC2)cc1 [Compound 111, N-[4-(difluoromethoxy)phenyl]-N′-[4-(pyrrolidin-1-ylsulfonyl)phenyl]urea]

Reference: patent US20090239841A1, “Diaryl Ureas as CB1 Antagonists” (priority 2004, published 2009)
